Experimental data as given in publication PMC3772838, “Preclinical Development of a Novel Class of CXCR4 Antagonist Impairing Solid Tumors Growth and Metastases” (PLoS ONE, 2013).
Bridges are numbered along the chain shown (N, C = ends). Where no end group is shown, it is not given here.

Experiments:
CXCR4 [1] = assay: Competition with 12G5 anti-CXCR4 antibody binding (flow cytometry); set-up: species or system human; conditions: CCRF-CEM cells, 10 µM peptide, 30 min pre-incubation at 37°C, PE-labelled 12G5, flow cytometry; at least three experiments
Protocol: CXCR4 binding was evaluated as previously described. Briefly 5×10^5 CCRF–CEM cells were pre-incubated with 10 µM peptides or AMD3100 in binding buffer (PBS 1× plus 0.2% BSA and 0.1% NaN3) for 30 minutes at 37°C, 5% CO2 and then labeled for 30 minutes with anti-CXCR4 PE-antibody (FAB170P, clone 12G5, R&D Systems, Minneapolis, MN, USA). The cells were analyzed by FACS Canto II cytofluorometer (Becton Dickinson Immunocytometry Systems, Mountain View, CA, USA).
(§1) (A) The amount of peptides or AMD3100 bound was assessed indirectly by flow cytometry using the PE-labelled anti-CXCR4 antibody (clone 12G5). Results are expressed as the percent antibody bound. (B) The Ca^2+ influx assay was performed using CCRF-CEM cells and Fluo-3 AM calcium indicator. CCRF-CEM cells were incubated 30 minutes at 37°C with Fluo-3 AM and 15 minutes with AMD3100 (10 µM)/peptides (10 µM) and then treated with CXCL12. Results are expressed as the percent of Fluo-3 AM fluorescence in presence of CXCL12 alone. Each peptide was tested in at least three different experiments. Double tailed T-Test was used for statistical analyses. Differences were considered significant at P<0.05 compared to control. Control (CTRL).

CXCR4 [2] = assay: CXCL12-induced calcium mobilization assay (Fluo-3 AM); assay type: cell-based, human; conditions: CCRF-CEM cells, 10 µM peptide, percent of fluorescence with CXCL12 alone; at least three experiments
Protocol: For the calcium efflux studies a 2 mg/mL stock solution of Fluo-3 acetoxymethylester (Invitrogen, Carlsbad, CA) in anhydrous DMSO was used. […] CCRF–CEM cells were resuspended in cell loading buffer (PBS, 1% FCS, 1 mmol/L MgCl2, and 1 mmol/L CaCl2) at 5×10^5 cells/mL. Fluo-3AM and Pluronic acid were added to each sample to increase Fluo-3AM solubility and improve dye loading into the cells. Baseline calcium efflux was established, then chemokines were added as indicated and chemokine-induced calcium efflux was measured.
as §1

[3] = test system: SN12C-GFP human renal cancer cells; assay: CXCL12-induced SN12C-GFP migration; assay type: cell-based; conditions: Figure 5
Protocol: Migration was assayed in 24-well Transwell chambers (Corning Inc., Corning, NY) using inserts with an 8-µm pore membrane. Membranes were precoated with collagen (human collagen type I/III) and fibronectin (20 µg/mL each). […] After 16 h incubation, cells on the upper surface of the filter were removed using a cotton wool swab; migration of cells in migration media alone was compared with migration in media containing CXCL12. The cells were counted in ten different fields (original magnification ×40). The migration index was defined as the ratio between migrating cells in the experimental group and migrated cells in the control group. For the wound closure assay, tested cells were allowed to reach confluence in six-well plates containing serum-depleted growth medium and scratched with pipette tips to make wounds. The wound closure was observed microscopically 6 hours post-wounding (OKO Time Lapse).
6 to 8-week-old female CD1 nude mice were injected subcutaneously with 2×10^6 pEGFP-SN12C cells pre-treated with 10 µM AMD3100 or 10 µM of each peptide. […] The experiments were repeated three times.

P-ERK1/2 = assay: CXCL12-induced p-ERK induction (immunoblotting); assay type: cell-based, human; conditions: PES43 cells serum-starved, CXCL12 100 ng/ml, after 5 minutes
Protocol: Cells were homogenized in lysis buffer (40 mM Hepes pH 7,5, 120 mM NaCl, 5 mM MgCl2, 1 mM EGTA, 0,5 mM EDTA, 1% Triton X-100) containing protease (Complete Tablets- EDTA-free, Roche) and phosphatase inhibitors (20 mM α-glycerol-3-phosphate, 2,5 mM Na-pyrophosphate). The following primary antibodies were used: anti-p-ERK (sc7383, Santa Cruz Biotechnology, Inc., Santa Cruz, CA, USA) and anti-ERK2 (sc 154G, Santa Cruz Biotechnology CA, USA). P-Erk induction was plotted as ratio P-Erk in the presence of CXCL12 (100 ng/ml)/P-Erk in serum free.
Experiments were conducted using PES43 cells. (A) Migration was assayed in 24-well Transwell chambers using inserts with 8-µm pore membrane. […] Migrated cells on the lower surface were fixed, stained with H&E and counted microscopically. The results are expressed as the migration index relative to migration in presence of BSA alone. […] Images were acquired with OKO Time Lapse. […] PES43 cells were serum-starved and incubated with CXCL12 (100 ng/ml) alone or in presence of AMD3100/peptides. Each peptide was tested in at least three different experiments. Double tailed T-Test was used for statistical analyses. Differences were considered significant at P<0.05 compared to control.
PES43 cell lines were serum starved for 16 hours. […] (TIF) Click here for additional data file.

| Substance | association of the 12G5-CXCR4 antibody to the receptor (CXCR4 [1]) | CXCL12-induced calcium efflux (Fluo-3 AM fluorescence) (CXCR4 [2]) | CXCL12-induced SN12C-GFP migration [3] | CXCL12-mediated p-ERK induction (P-ERK1/2) |
| --- | --- | --- | --- | --- |
| Arg-Ala-[Cys-Arg-His-Trp-Cys] (RACRHWC; disulfide 3-7) [Peptide S, CXCL12-mimetic disulfide-cyclic peptide] | 17 % of control | 49.75 % of control | inhibited | reduced |
| Arg-Ala-[Cys-Arg-Phe-Phe-Cys] (RACRFFC; disulfide 3-7) [Peptide R, CXCL12-mimetic disulfide-cyclic peptide] | 21 % of control | 51.25 % of control | inhibited | reduced |
| [Cys-Trp-His-Arg-Cys] (CWHRC; disulfide 1-5) [Peptide I, v-MIP-II mimetic disulfide-cyclic peptide] | 45 % of control | Minimal effect | inhibited | reduced |
